Data on 28 molecules can be found in patent US20070287699A1, “ANTIVIRAL AGENTS” (ViroBay, Inc., priority 2006, published 2007).

Molecules are shown by their SMILES. A value given as a limit tells only on which side of the number the result lay.

In this assay the test system is HCV replicon RNA replication in human Huh7 hepatoma cells. The experiment in a line: HCV replicon assay (activity levels from either or both of HCV replicon assay 1, Huh7/Clone A RT-qPCR, and assay 2, Huh7 ET luc-ubi-neo/ET). The format is cell-based, Hepatitis C virus (HCV). As to conditions: Hepatitis C virus, Huh-7, either or both HCV replicon assays: Huh7/Clone A, 48 hours, 72 hours, Luc activity or RT-PCR, read-out: inhibit HCV replication at IC50 levels or estimated IC50 levels. A digest of the protocol:
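Huh7/Clone A subgenomic replicon cells treated 48 h at 37° C. with 7 serial dilutions in triplicate (0.5% DMSO final). Replicon RNA measured by TaqMan RT-qPCR on the neo gene, normalized to RiboGreen total RNA; untreated cells set as 100% for IC50.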
By IC50 is commonly meant the concentration needed to halve the response being measured. Take `CC(c1ccc(C(F)(F)F)cc1)n1cc(-c2noc(C(C)(C)c3ccc(F)cc3)n2)c(=O)c2cc(F)c(N3CCOCC3)cc21` (stereo not shown) [Compound 109, 6-fluoro-3-(5-(2-(4-fluorophenyl)propan-2-yl)-1,2,4-oxadiazol-3-yl)-7-morpholino-1-(1-(4-(trifluoromethyl)phenyl)ethyl)quinolin-4(1H)-one]: the IC50 was < 2000 nM.
On to `CC(C)(c1ccc(F)cc1)c1nc(-c2cn(Cc3ccc(C(F)(F)F)cc3)c3cc(N4CCNC(=O)C4)c(F)cc3c2=O)no1` [Compound 125, 6-fluoro-3-(5-(2-(4-fluorophenyl)propan-2-yl)-1,2,4-oxadiazol-3-yl)-7-(3-oxopiperazin-1-yl)-1-(4-(trifluoromethyl)benzyl)quinolin-4(1H)-one], for which the IC50 was < 500 nM.
`CC(C)(c1ccccc1)c1nc(-c2cn(Cc3ccc(C(F)(F)F)cc3)c3cc(N4CCNC(=O)C4)c(F)cc3c2=O)no1` [Compound 126, 6-fluoro-7-(3-oxopiperazin-1-yl)-3-(5-(2-phenylpropan-2-yl)-1,2,4-oxadiazol-3-yl)-1-(4-(trifluoromethyl)benzyl)quinolin-4(1H)-one]: the IC50 was < 500 nM.
With `CC(C)(c1ccc(Cl)cc1)c1nc(-c2cn(Cc3ccc(C(F)(F)F)cc3)c3cc(N4CCS(=O)(=O)CC4)c(F)cc3c2=O)no1` [Compound 127, 3-(5-(2-(4-chlorophenyl)propan-2-yl)-1,2,4-oxadiazol-3-yl)-6-fluoro-7-dioxo-thiomorpholino-1-(4-(trifluoromethyl)benzyl)quinolin-4(1H)-one], the IC50 was < 10000 nM.
Regarding `CC(C)(c1ccccc1)c1nc(-c2cn(Cc3ccc(C(F)(F)F)cc3)c3cc(N4CC[S+]([O-])CC4)c(F)cc3c2=O)no1` [Compound 129], the IC50 is < 500 nM.
Regarding `COc1ccc(Cn2cc(-c3noc(C(C)(C)c4ccc(F)cc4)n3)c(=O)c3cc(F)c(N4CCOCC4)cc32)cc1` [Compound 130, 6-fluoro-3-(5-(2-(4-fluorophenyl)propan-2-yl)-1,2,4-oxadiazol-3-yl)-1-(4-methoxybenzyl)-7-morpholinoquinolin-4(1H)-one], the IC50 was < 2000 nM.
For `C[C@@H]1CN(c2cc3c(cc2F)c(=O)c(-c2noc(C(C)(C)c4ccccc4)n2)cn3Cc2ccc(C(F)(F)F)cc2)C[C@H](C)N1` [Compound 131, 7-((3S,5R)-3,5-dimethylpiperazin-1-yl)-6-fluoro-3-(5-(2-phenylpropan-2-yl)-1,2,4-oxadiazol-3-yl)-1-(4-(trifluoromethyl)benzyl)quinolin-4(1H)-one], the IC50 was < 500 nM.
As to `CC(C)(c1ccc(F)cc1)c1nc(-c2cn(Cc3ccc(C(F)(F)F)cc3)c3cc(N4CCSCC4)c(F)cc3c2=O)no1` [Compound 132, 6-fluoro-3-(5-(2-(4-fluorophenyl)propan-2-yl)-1,2,4-oxadiazol-3-yl)-7-thiomorpholino-1-(4-(trifluoromethyl)benzyl)quinolin-4(1H)-one], the IC50 was < 500 nM.
Take `C[C@@H]1CN(c2cc3c(cc2F)c(=O)c(-c2noc(C(C)(C)c4ccc(F)cc4)n2)cn3Cc2ccc(C(F)(F)F)cc2)C[C@H](C)N1` [Compound 133, 7-((3S,5R)-3,5-dimethylpiperazin-1-yl)-6-fluoro-3-(5-(2-(4-fluorophenyl)propan-2-yl)-1,2,4-oxadiazol-3-yl)-1-(4-(trifluoromethyl)benzyl)quinolin-4(1H)-one]: the IC50 was < 500 nM.
For `CC1CN(c2cc3c(cc2F)c(=O)c(-c2noc(C(C)(C)c4ccccc4)n2)cn3Cc2ccc(C(F)(F)F)cc2)CC(C)O1` (stereo not shown) [Compound 138, 7-(2,6-dimethylmorpholino)-6-fluoro-3-(5-(2-phenylpropan-2-yl)-1,2,4-oxadiazol-3-yl)-1-(4-(trifluoromethyl)benzyl)quinolin-4(1H)-one], the IC50 was < 2000 nM.
Take `C[C@@H](c1ccccc1)n1cc(-c2noc(C(C)(C)c3ccccc3)n2)c(=O)c2cc(F)c(N3CCOCC3)cc21` [Compound 143, (S)-6-fluoro-7-morpholino-1-(1-phenylethyl)-3-(5-(2-phenylpropan-2-yl)-1,2,4-oxadiazol-3-yl)quinolin-4(1H)-one]: the IC50 was > 10000 nM.
Consider `CC(C)(c1ccccc1)c1nc(-c2cn(C(C)(C)c3ccccc3)c3cc(N4CCOCC4)c(F)cc3c2=O)no1` [Compound 144, 6-fluoro-7-morpholino-1-(2-phenylpropan-2-yl)-3-(5-(2-phenylpropan-2-yl)-1,2,4-oxadiazol-3-yl)quinolin-4(1H)-one], for which the IC50 is > 10000 nM.
The same measure for `C[C@H](c1ccccc1)n1cc(-c2noc(C(C)(C)c3ccccc3)n2)c(=O)c2cc(F)c(N3CCOCC3)cc21` [Compound 145, (R)-6-fluoro-7-morpholino-1-(1-phenylethyl)-3-(5-(2-phenylpropan-2-yl)-1,2,4-oxadiazol-3-yl)quinolin-4(1H)-one]: > 10000 nM; for `CC(C)(c1ccccc1)c1nc(-c2cn(Cc3ccc(C(F)(F)F)cc3)c3cc(N4CCOCC4)c(F)cc3c2=O)no1` [Compound 146, 6-fluoro-7-morpholino-3-(5-(2-phenylpropan-2-yl)-1,2,4-oxadiazol-3-yl)-1-(4-(trifluoromethyl)benzyl)quinolin-4(1H)-one]: < 500 nM.
For the molecule `CC(C)(c1ccc(F)cc1)c1nc(-c2cn(Cc3ccc(F)cc3)c3cc(N4CCS(=O)(=O)CC4)c(F)cc3c2=O)no1` [Compound 151, 7-(1,1-dioxo-thiomorpholine)-6-fluoro-3-(5-(2-(4-fluorophenyl)propan-2-yl)-1,2,4-oxadiazol-3-yl)-1-(4-(fluoro)benzyl)quinolin-4(1H)-one], the IC50 is < 10000 nM.
For `CN(C)c1cc2c(cc1F)c(=O)c(-c1noc(C(C)(C)c3ccccc3)n1)cn2Cc1ccc(C(F)(F)F)cc1` [Compound 152, 7-(dimethylamino)-6-fluoro-3-(5-(2-phenylpropan-2-yl)-1,2,4-oxadiazol-3-yl)-1-(4-(trifluoromethyl)benzyl)quinolin-4(1H)-one], the IC50 was < 500 nM.
`CN(C)c1cc2c(cc1F)c(=O)c(-c1noc(C(C)(C)c3ccc(F)cc3)n1)cn2Cc1ccc(C(F)(F)F)cc1` [Compound 153, 7-(dimethylamino)-6-fluoro-3-(5-(2-(4-fluorophenyl)propan-2-yl)-1,2,4-oxadiazol-3-yl)-1-(4-(trifluoromethyl)benzyl)quinolin-4(1H)-one]: the IC50 was < 2000 nM.
Regarding `CN(C)c1cc2c(cc1F)c(=O)c(-c1noc(C(C)(C)c3ccccc3)n1)cn2Cc1ccc(F)cc1` [Compound 154, 7-(dimethylamino)-6-fluoro-1-(4-fluorobenzyl)-3-(5-(2-phenylpropan-2-yl)-1,2,4-oxadiazol-3-yl)quinolin-4(1H)-one], the IC50 was < 2000 nM.
`CC(C)(c1ccc(F)cc1)c1nc(-c2cn(Cc3ccc(F)cc3)c3cc(F)c(F)cc3c2=O)no1` [Compound 155, 6,7-difluoro-1-(4-fluorobenzyl)-3-(5-(2-(4-fluorophenyl)propan-2-yl)-1,2,4-oxadiazol-3-yl)quinolin-4(1H)-one]: the IC50 is > 10000 nM.
Regarding `CC(C)(c1ccc(F)cc1)c1nc(-c2cn(Cc3ccc(F)cc3)c3ccccc3c2=O)no1` [Compound 156, 1-(4-fluorobenzyl)-3-(5-(2-(4-fluorophenyl)propan-2-yl)-1,2,4-oxadiazol-3-yl)quinolin-4(1H)-one], the IC50 is > 10000 nM.
In the case of `CC(C)(c1ccc(F)cc1)c1nnc(-c2cn(Cc3ccc(C(F)(F)F)cc3)c3cc(N4CCOCC4)c(F)cc3c2=O)o1` [Compound 161, 6-fluoro-3-(5-(2-(4-fluorophenyl)propan-2-yl)-1,3,4-oxadiazol-2-yl)-7-morpholino-1-(4-(trifluoromethyl)benzyl)quinolin-4(1H)-one], the IC50 was < 2000 nM.
Take `COc1cc2c(=O)c(-c3nnc(Cc4ccc(Cl)cc4)o3)cn(Cc3ccc(Cl)cc3)c2cc1OC` [Compound 162, 1-(4-chloro-benzyl)-3-[5-(4-chloro-benzyl)-[1,3,4]oxadiazol-2-yl]-6,7-dimethoxy-1H-quinolin-4-one]: the IC50 was > 10000 nM.
With `COc1cc2c(=O)c(-c3nnc(Cc4ccc(Cl)cc4)o3)cn(CC3CCCCC3)c2cc1OC` [Compound 163, 3-[5-(4-chloro-benzyl)-[1,3,4]oxadiazol-2-yl]-1-cyclohexylmethyl-6,7-dimethoxy-1H-quinolin-4-one], the 50% inhibitory concentration (IC50) is > 10000 nM.
As to `CN1CCN(c2cc3c(cc2F)c(=O)c(-c2nnc(Cc4ccccc4)o2)cn3Cc2ccc(Cl)cc2)CC1` [Compound 164, 3-(5-benzyl-[1,3,4]oxadiazol-2-yl)-1-(4-chloro-benzyl)-6-fluoro-7-(4-methyl-piperazin-1-yl)-1H-quinolin-4-one], the IC50 was < 10000 nM.
For `CN1CCN(c2cc3c(cc2F)c(=O)c(-c2nnc(Cc4ccccc4)o2)cn3Cc2ccc(C(F)(F)F)cc2F)CC1` [Compound 165, 3-(5-benzyl-[1,3,4]oxadiazol-2-yl)-1-(4-(2-fluoro-4-trifluormethyl)-benzyl)-6-fluoro-7-(4-methyl-piperazin-1-yl)-1H-quinolin-4-one] the value was < 2000 nM.
Regarding `CC(C)(c1ccccc1)c1nnc(-c2cn(Cc3ccc(C(F)(F)F)cc3)c3cc(N4CCOCC4)c(F)cc3c2=O)o1` [Compound 167, 6-fluoro-7-morpholino-3-(5-(2-phenylpropan-2-yl)-1,3,4-oxadiazol-2-yl)-1-(4-(trifluoromethyl)benzyl)quinolin-4(1H)-one], the IC50 was < 2000 nM.
The same measure for `COc1cc2c(=O)c(-c3nc(Cc4ccccc4)no3)cn(Cc3ccc(Cl)cc3)c2cc1OC` [Compound 169, 3-(3-benzyl-[1,2,4]oxadiazol-5-yl)-1-(4-chloro-benzyl)-6,7-dimethoxy-1H-quinolin-4-one]: > 10000 nM.
For `COc1cc2c(=O)c(-c3nc(Cc4ccccc4)no3)cn(CC3CCCCC3)c2cc1OC` [Compound 170, 3-(3-benzyl-[1,2,4]oxadiazol-5-yl)-1-cyclohexylmethyl-6,7-dimethoxy-1H-quinolin-4-one], the IC50 was > 10000 nM.
